{"source": "patent US5232917A", "about": "“Methods, compositions, and compounds for allosteric modulation of the GABA receptor by members of the androstane and pregnane series” (priority 1991, dated 1993)", "key": {"[1]": {"test_system": "number of light/dark transitions (anxiety)", "test": "Light/dark transition test", "assay_type": "in vivo, mice (male N.I.H. Swiss-Webster)", "source_text": "(§1) The light/dark transition test (Crawley and Goodwin, 1980) is based on the observation that rodents naturally tend to explore novel environments, but open, brightly lit arenas are aversive to the rodents and inhibit exploratory behavior (Christmas and Maxwell, 1970; File, 1980). […] Similar to the light/dark transition test, the open-field test measures the antagonism between the tendency to explore a novel environment and the tendency to remain still in an aversive environment (brightly lit arena). […] The open-field test provides a simple, non-punished assessment of the potential anxiolytic properties of novel compounds. Finally, 3α-OH-DHP was tested for anxiolytic properties in a Vogel conflict paradigm. The ability of BZs to attenuate the suppression of behavior by punishment in conflict paradigms is well established (Gellar et al., 1962; Vogel et al., 1971).\n(§2) Male N.I.H. Swiss-Webster mice (Harlan) weighing 15-20 g were used in all experiments. The mice were housed 4/cage in polyethylene cages with sawdust bedding. The colony room was environmentally controlled (22° C.) with a 12 hr. light/dark cycle (0600-1800 hrs.). The mice had free access to food and water. The experiments were run from 0700-1500 hrs. and groups were counterbalanced for time of day effects.\nThe method used was previously described by Crawley and Goodwin (1980). The apparatus included a large box (26×33×24 cm) connected to a small box (15×22×14 cm) through an opening (5×6 cm). The large box was brightly lit with a standard 100W light bulb, while the small box was kept dark. Following pretreatment with a test drug, mice were placed in the center of the large box and the number of transitions between the large and small boxes was counted for 10 min. […] During the antagonist studies, CGS-8216 was administered 30 min. prior to the test drug.\n(§3) 2-Hydroxypropyl β-cyclodextrin Diazepam and chlordiazepoxide are available from Sigma, Co. (St. Louis, Mo.). CGS-8216 was obtained from Ciba-Geigy (Summit, N.J.). All drugs were dissolved in 20% β-cyclodextrin in water and sonicated overnight. All drugs were administered intraperitoneally in a volume of 100 μL/20 g. CGS-8216 was administered subcutaneously in a volume of 100 μL/20 g.\n(§4) The vehicle control data were analyzed across test days using an 1-way analysis of variance (ANOVA). […] The dose-response curves were then analyzed using an 1-way ANOVA, followed by Dunnett's t-test for individual comparisons between doses and control. The open-field and habituated locomotor data were analyzed using ANOVA followed by Dunnett's t-test. […] All data is expressed as the mean±S.E.M."}, "[2]": {"test_system": "open-field activity", "test": "Open-field activity test", "assay_type": "in vivo, mice (male N.I.H. Swiss-Webster)", "conditions": "diazepam 10 mg/kg", "source_text": "as §1, §2\nAs a secondary measure of anxiolytic effects, naive mice were placed in the center of a large, brightly lit plexiglass box (42×42×30.5 cm) and the total distance traveled was measured during a 10 min. test period. […] The Digiscan Activity Monitor (Omnitech Electronics, Columbus, Ohio) includes 16 photobeams that surround the box. The activity monitor is linked to a computer through a Digiscan Analyzer (Omnitech Electronics) and the data is analyzed using the Integrated Lab Animal Monitoring System (Omnitech Electronics). The mice were administered drugs as described for light/dark transitions.\nas §3, §4"}, "[3]": {"test_system": "locomotor activity", "test": "Locomotor activity in habituated mice", "assay_type": "in vivo, mice (male N.I.H. Swiss-Webster)", "method": "For evaluation of a drug's effects on general activity, mice were first habituated to the open-field apparatus for 15 min. The following day, mice were pretreated with a test drug and placed in the center of the activity chambers. The total distance traveled was measured for 10 min.\nas §4"}, "[4]": {"test_system": "number of light/dark transitions (anxiety)", "conditions": "Crawley et al., cited from earlier work; for effect on number of light/dark transitions (literature): Blumstein and Crawley, 1983"}, "[5]": {"test_system": "PMS, PND and catamenial epilepsy", "conditions": "cited from earlier work; for clinical effectiveness: PMS, PND, catamenial epilepsy (progesterone), menstrual-cycle correlated epileptic spells (desoxycorticosterone)"}, "[6]": {"test_system": "GABA receptor-chloride ionophore complex (GR complex)", "test": "[35S]TBPS binding modulation assay"}, "[7]": {"test_system": "GABA receptor complex (36Cl uptake, cerebral cortical synaptoneurosomes)", "test": "GABA-stimulated 36Cl uptake in rat cerebral cortical synaptoneurosomes", "assay_type": "biochemical, rat (male Sprague-Dawley)", "method": "In addition, the ability of the BZ clonazepam to modulate ^36 Cl uptake in the presence or absence of 5α-pregnandiol was evaluated.\nThe homogenate was diluted to a final volume of 40 mL with buffer and filtered through three layers of Nylon mesh (160 μm).\nAliquots of membrane preparation (200 μL) were preincubated at 30° C. for 10 min. The interaction was initiated by the simultaneous addition of drugs/steroids and 0.2 mL ^36 Cl (New England Nuclear Boston, Mass., 0.55 mCi/mmol, 0.8 μCi/ml) resulting in a total incubation volume of 0.4 mL. Steroids and test drugs were solubilized in dimethylsufoxide (DMSO) and added to the reaction mixture in 2 μL aliquots. An equal volume of vehicle was always included in the control reaction mixture. The mixture was gently mixed and ^36 Cl uptake terminated after 5 sec by the of 5 mL of ice cold buffer containing 100 μM picrotoxin (Sigma Chem Co.) followed immediately by rapid filtration through glass fiber filters (Whatman GF/C) under vacuum. The filters were washed twice with 5 mL of ice-cold buffer and the filter-bound radioactivity quantitated by liquid scintillation spectrophotometry. Specific uptake was calculated by subtracting the amount of ^36 Cl bound to the filters in the absence of synaptoneurosomes from that observed in their presence. Percent enhancement represents percent increase in uptake over that of basal ^36 Cl uptake. Statistical comparisons utilized the analysis of variance (ANOVA)."}, "[8]": {"test_system": "maximal electroshock seizure", "conditions": "Swinyard & Woodhead, 1982; cited from earlier work"}, "[9]": {"test_system": "metrazol-induced convulsions", "conditions": "Swinyard & Woodhead, 1982; cited from earlier work"}, "[10]": {"test_system": "(+)bicuculline-induced seizures", "conditions": "Swinyard & Woodhead, 1982; cited from earlier work"}, "[11]": {"test_system": "picrotoxin-induced convulsions", "conditions": "Swinyard & Woodhead, 1982; cited from earlier work"}, "[12]": {"test_system": "strychnine-induced convulsions", "parameters": "key to ED50 STR (strychnine): NP: no protection", "conditions": "Swinyard & Woodhead, 1982; cited from earlier work"}, "[13]": {"test_system": "sedative potential (rotorod)", "conditions": "Swinyard & Woodhead, 1982; cited from earlier work"}, "[14]": {"conditions": "Swinyard & Woodhead, 1982; cited from earlier work"}, "[15]": {"test_system": "punished responding", "test": "Vogel conflict paradigm (lick suppression)", "assay_type": "in vivo, mice (male N.I.H. Swiss-Webster)", "conditions": "CDP 10 mg/kg", "source_text": "An Anxio-Monitor (Omnitech Electronics, Columbus, Ohio) was used for measuring lick suppression. The testing chamber consisted of a clear plexiglass box (29 cm×29 cm×23 cm) with a metal drinking tube located 2.5 cm from the floor and extending 2 cm into the box. The shock was applied through the drinking spout and was controlled by the Anxio-Monitor. […] The reinforcer was 0.1M sucrose.\nThe conflict test procedure described by Vogel et al. (1980) was employed. This procedure is a modification of the original lick suppression test first described by Vogel et al. (1971). After 24 hr. of water deprivation,mice were allowed to explore the test apparatus and drink without punishment for 10 min. or 100 licks. […] Mice were allowed unpunished access to the drinking tube for 20 licks, thereafter, every 10th lick was punished with 0.1 mA shock. The test duration was 5 min.\nas §4"}}, "note": "Read-outs that look alike come from different tables or passages of the source."}
{"smiles": "CN1C(=O)CN=C(c2ccccc2)c2cc(Cl)ccc21", "note": "[Diazepam, reference compound]", "values": [{"measurement": "effect on number of light/dark transitions (words)", "setting": "[1]; 3α-OH-DHP 10, 20, 40 mg/kg, 5α-THDOC 20 mg/kg, diazepam 1.0, 5.0, 10, 20 mg/kg, 20 mg/kg", "value": "significantly (p<0.01) different from controls"}, {"measurement": "number of transitions in 10 min (maximal response)", "setting": "[1]; diazepam 10 mg/kg i.p., FIG. 11", "value": "86.4±5.4", "unit": "transitions"}, {"measurement": "total distance, open-field", "setting": "[2]; 10 min, vehicle 2004.6 ± 134.6", "value": "4817.7 ± 528.4", "unit": "cm"}, {"measurement": "effect on open-field activity", "setting": "[2]; steroids 20 mg/kg", "value": "significant (p<0.01) increase in activity"}, {"measurement": "effect on locomotor activity", "setting": "[3]; acclimated mice", "value": "no effect"}, {"measurement": "total distance traveled, acclimated mice", "setting": "[3]; diazepam 10 mg/kg, controls 2061.2±157.7 cm", "value": "2258.0±897.7", "unit": "cm"}, {"measurement": "effect on number of light/dark transitions (literature)", "setting": "[4]", "value": "increase the number of transitions"}]}
{"smiles": "CC(=O)[C@H]1CC[C@H]2[C@@H]3CCC4=CC(=O)CC[C@]4(C)[C@H]3CC[C@]12C", "note": "[PROGESTERONE, reference compound]", "values": [{"measurement": "dose-response relationship in the treatment of PMS", "setting": "[5]; Maddocks et al., Dennerstein et al.", "value": "no dose-response relationship exists"}, {"measurement": "clinical effectiveness", "setting": "[5]", "value": "not consistently effective"}, {"measurement": "potency/activity at the GR complex", "setting": "[6]; modulation of [35S]TBPS binding", "value": "very low potency"}, {"measurement": "IC50", "setting": "[6]; read-out: IC50, inhibition of [35S]-TBPS binding, +5 μM GABA, in the presence of 5 μM GABA", "value": 5.2, "unit": "µM"}, {"measurement": "IC50", "setting": "[6]; read-out: IC50, inhibition of [35S]-TBPS binding, No GABA, washed synaptoneurosomes, no GABA added", "value": "> 100", "unit": "µM"}, {"measurement": "Max. Inhib., maximal % of specifically bound [35S]-TBPS displaced", "setting": "[6]; saturating concentrations of test compound", "value": 100, "unit": "%"}]}
{"smiles": "O=C1CN=C(c2ccccc2Cl)c2cc([N+](=O)[O-])ccc2N1", "note": "[Clonazepam]", "values": [{"measurement": "% enhancement of basal 36Cl uptake", "setting": "[7]; GABA (25 μM) + clonazepam (1 μM)", "value": "164±2", "unit": "%"}, {"measurement": "% enhancement of basal 36Cl uptake", "setting": "[7]; clonazepam (1 μM), no GABA", "value": "1 ± 0.5", "unit": "%"}, {"measurement": "ED50 MES (maximal electroshock)", "setting": "[8]", "value": 93, "unit": "mg/kg"}, {"measurement": "ED50 MTZ (metrazol)", "setting": "[9]", "value": 9, "unit": "µg/kg"}, {"measurement": "ED50 BIC (bicuculline)", "setting": "[10]", "value": 8.6, "unit": "µg/kg"}, {"measurement": "ED50 PICRO (picrotoxin)", "setting": "[11]", "value": 0.043, "unit": "mg/kg"}, {"measurement": "ED50 STR (strychnine)", "setting": "[12]", "value": "NP"}, {"measurement": "effect on number of light/dark transitions (literature)", "setting": "[4]", "value": "increase the number of transitions"}, {"measurement": "ED50 RR (Rotorod)", "setting": "[13]", "value": 0.184, "unit": "mg/kg"}, {"measurement": "LD50", "setting": "[14]", "value": "> 6000", "unit": "mg/kg"}]}
{"smiles": "C[C@]12CC[C@H]3[C@@H](CCC4=CC(=O)CC[C@@]43C)[C@@H]1CC[C@@H]2C(=O)CO", "note": "[desoxycorticosterone]", "values": [{"measurement": "clinical effectiveness", "setting": "[5]", "value": "effective"}]}
{"smiles": "CNC1=Nc2ccc(Cl)cc2C(c2ccccc2)=[N+]([O-])C1", "note": "[CDP, reference compound]", "values": [{"measurement": "increase in punished responding vs controls", "setting": "[15]; 5 min session, p=0.03, FIG. 14", "value": 197.4, "unit": "%"}, {"measurement": "punished responding", "setting": "[15]; controls 3.11±0.68", "value": "6.14±1.14"}]}
{"smiles": "O=C1C2C=Nc3ccccc3C2=NN1c1ccccc1", "note": "(stereo not drawn) [CGS-8216, reference compound]", "values": [{"measurement": "block of anxiolytic effect of 3α-OH-DHP by CGS-8216", "setting": "[1]; CGS-8216 10 mg/kg, 3α-OH-DHP 10 mg/kg, FIG. 13A", "value": "unable to block"}, {"measurement": "block of anxiolytic effect of diazepam by CGS-8216", "setting": "[1]; diazepam 1.0 mg/kg, FIG. 13B", "value": "able to block the anxiolytic effect of diazepam"}, {"measurement": "intrinsic activity in light/dark transition test", "setting": "[1]; p>0.4 vs vehicle", "value": "did not demonstrate any intrinsic activity"}, {"measurement": "block of diazepam's anxiolytic effects (literature)", "setting": "[4]; 1984", "value": "block diazepam's anxiolytic effects"}]}
